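Cultured in 96-well plates, cells were exposed to test compound for 48 hours across five concentrations. GI50 is the concentration that inhibits growth by half.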 Calls of active or inactive are those of the source. No stated cut-off is given here; in the data, active = GI50 up to about 1.1 µM and inactive = higher.
Assays:
Experiment in all cases: inhibition of tumour cell growth, NCI panel, 48 h
[1] = test system: 786-0
[2] = test system: A549
[3] = test system: ACHN
[4] = test system: CAKI-1
[5] = test system: CCRF-CEM
[6] = test system: COLO 205
[7] = test system: DLD-1
[8] = test system: DMS-114
[9] = test system: DMS-273
[10] = test system: EKVX
[11] = test system: HCC 2998
[12] = test system: HCT-116
[13] = test system: HCT-15
[14] = test system: HL-60
[15] = test system: HOP-62
[16] = test system: HOP-92
[17] = test system: HT-29
[18] = test system: IGROV-1
[19] = test system: K562
[20] = test system: KM-20L2
[21] = test system: KM12
[22] = test system: LOX IMVI
[23] = test system: LXFL 529
[24] = test system: M19-MEL
[25] = test system: MOLT-4
[26] = test system: Malme-3M
[27] = test system: NCI-H226
[28] = test system: NCI-H23
[29] = test system: NCI-H460
[30] = test system: NCI-H522
[31] = test system: OVCAR-3
[32] = test system: OVCAR-5
[33] = test system: OVCAR-8
[34] = test system: RPMI-8226
[35] = test system: RXF 393
[36] = test system: SF-268
[37] = test system: SF-295
[38] = test system: SF-539
[39] = test system: SK-MEL-28
[40] = test system: SK-MEL-2
[41] = test system: SK-MEL-5
[42] = test system: SK-OV-3
[43] = test system: SN12C
[44] = test system: SNB-19
[45] = test system: SR
[46] = test system: SW-620
[47] = test system: TK-10
[48] = test system: U-251
[49] = test system: UACC-257
[50] = test system: UACC-62
[51] = test system: XF498
[52] = test system: A498
[53] = test system: M14
[54] = test system: SNB-78
[55] = test system: UO-31
[56] = test system: BT-549
[57] = test system: DU-145
[58] = test system: Hs-578T
[59] = test system: MCF7
[60] = test system: MDA-MB-231
[61] = test system: MDA-MB-435
[62] = test system: MDA-N
[63] = test system: NCI/ADR-RES
[64] = test system: OVCAR-4
[65] = test system: PC-3
[66] = test system: SNB-75
[67] = test system: T47D

For `CCC12CCCNC1c1c(n(C)c3ccccc13)C(C(=O)OC)C2` (stereo not given), the GI50 [1] was 93.8 µM (inactive), the GI50 [2] was 93.3 µM (inactive) and the GI50 [3] was 79.4 µM (inactive). For the same compound, the GI50 [4] was 32.8 µM (inactive), the GI50 [5] was 85.1 µM (inactive) and the GI50 [6] was 38.8 µM (inactive). For the same compound, the GI50 [7] was 76.4 µM (inactive), the GI50 [8] was 18.5 µM (inactive) and the GI50 [9] was 68.7 µM (inactive). For the same compound, the GI50 [10] was 79.3 µM (inactive), the GI50 [11] was 67.8 µM (inactive) and the GI50 [12] was 37.6 µM (inactive). For the same compound, the GI50 [13] was 81.1 µM, the GI50 [14] was 72.9 µM (inactive) and the GI50 [15] was 93.3 µM (inactive). The GI50 [16] was 16.3 µM (inactive), the GI50 [17] was 38.1 µM (inactive) and the GI50 [18] was 61.4 µM (inactive). The GI50 [19] was 67.9 µM (inactive), the GI50 [20] was 44.3 µM (inactive) and the GI50 [21] was 58.3 µM (inactive). The GI50 [22] was 93.1 µM (inactive), the GI50 [23] was 80.2 µM (inactive) and the GI50 [24] was 68.4 µM (inactive). The GI50 [25] was 68.7 µM (inactive), the GI50 [26] was 80.2 µM (inactive) and the GI50 [27] was 126 µM (inactive). The GI50 [28] was 51.6 µM (inactive), the GI50 [29] was 76.9 µM (inactive) and the GI50 [30] was 8.02 µM (inactive). For the same compound, the GI50 [31] was 11.2 µM (inactive), the GI50 [32] was 67 µM (inactive) and the GI50 [33] was 88.3 µM (inactive). The GI50 [34] was 9.4 µM (inactive), the GI50 [35] was 36.5 µM (inactive) and the GI50 [36] was 85.5 µM (inactive). For the same compound, the GI50 [37] was 50.4 µM (inactive), the GI50 [38] was 108 µM (inactive) and the GI50 [39] was 100 µM (inactive). For the same compound, the GI50 [40] was 62.2 µM (inactive), the GI50 [41] was 36.6 µM (inactive) and the GI50 [42] was 46.9 µM (inactive). For the same compound, the GI50 [43] was 78.3 µM (inactive), the GI50 [44] was 95.5 µM (inactive) and the GI50 [45] was 49.8 µM (inactive). The GI50 [46] was 68.1 µM (inactive), the GI50 [47] was 116 µM (inactive) and the GI50 [48] was 61.7 µM (inactive). The GI50 [49] was 59.2 µM (inactive), the GI50 [50] was 56.8 µM (inactive) and the GI50 [51] was 51.6 µM (inactive).

In the case of `C=C(C)C1CC=C(C)[C@](O)(C2(O)C[C@H](C(=C)C)CC=C2C)C1` (stereo not given in full), the GI50 [52] is reported as > 100 µM (inactive), the GI50 [2] is reported as > 100 µM (inactive) and the GI50 [3] is reported as > 100 µM (inactive). For the same compound, the GI50 [5] was > 100 µM (inactive), the GI50 [8] was > 100 µM (inactive) and the GI50 [9] was > 100 µM (inactive). For the same compound, the GI50 [10] was > 100 µM (inactive), the GI50 [12] was > 100 µM (inactive) and the GI50 [14] was > 100 µM (inactive). For the same compound, the GI50 [15] was > 100 µM (inactive), the GI50 [16] was > 100 µM (inactive) and the GI50 [17] was > 100 µM (inactive). The GI50 [18] was > 100 µM (inactive), the GI50 [20] was > 100 µM (inactive) and the GI50 [21] was > 100 µM (inactive). For the same compound, the GI50 [53] was > 100 µM (inactive), the GI50 [24] was > 100 µM (inactive) and the GI50 [25] was > 100 µM (inactive). For the same compound, the GI50 [28] was > 100 µM (inactive), the GI50 [29] was > 100 µM (inactive) and the GI50 [30] was > 100 µM (inactive). For the same compound, the GI50 [32] was > 100 µM (inactive), the GI50 [33] was > 100 µM (inactive) and the GI50 [35] was > 100 µM (inactive). The GI50 [37] was > 100 µM (inactive), the GI50 [39] was > 100 µM (inactive) and the GI50 [42] was > 100 µM (inactive). The GI50 [44] was > 100 µM (inactive), the GI50 [54] was > 100 µM (inactive) and the GI50 [45] was > 100 µM (inactive). For the same compound, the GI50 [47] was > 100 µM (inactive), the GI50 [48] was > 100 µM (inactive) and the GI50 [49] was > 100 µM (inactive). For the same compound, the GI50 [50] was > 100 µM (inactive) and the GI50 [55] was > 100 µM (inactive).

`CC(C)(Cl)C(Br)CC/C(CBr)=C(/Cl)CCl.CC(C)(Cl)C(Br)CC/C(CBr)=C(\Cl)CCl` (stereo not given) was tested, and the GI50 [1] was 1.66 µM (inactive), the GI50 [52] was 0.1 µM (active) and the GI50 [2] was > 10 µM (inactive). For the same compound, the GI50 [3] was 5.64 µM (inactive), the GI50 [56] was 2.01 µM (inactive) and the GI50 [4] was 2.41 µM (inactive). For the same compound, the GI50 [5] was 0.126 µM (active), the GI50 [6] was 0.607 µM (active) and the GI50 [57] was > 10 µM (inactive). For the same compound, the GI50 [10] was 6.17 µM (inactive), the GI50 [11] was 2.86 µM (inactive) and the GI50 [12] was 1.82 µM (inactive). For the same compound, the GI50 [13] was 2.29 µM, the GI50 [14] was 0.94 µM (active) and the GI50 [15] was 3.92 µM (inactive). For the same compound, the GI50 [16] was 1.9 µM (inactive), the GI50 [17] was 2.06 µM (inactive) and the GI50 [58] was 3.22 µM (inactive). For the same compound, the GI50 [18] was 0.782 µM (active), the GI50 [19] was 1.01 µM (active) and the GI50 [21] was 2.02 µM (inactive). The GI50 [22] was 1.61 µM (inactive), the GI50 [53] was 1.49 µM (inactive) and the GI50 [59] was 2.13 µM (inactive). For the same compound, the GI50 [60] was 1.83 µM (inactive), the GI50 [61] was 1.79 µM (inactive) and the GI50 [62] was 1.8 µM (inactive). For the same compound, the GI50 [25] was 0.417 µM (active), the GI50 [26] was 1.9 µM (inactive) and the GI50 [27] was 0.975 µM (active). For the same compound, the GI50 [28] was 2.43 µM (inactive), the GI50 [29] was 6.38 µM (inactive) and the GI50 [30] was 1.45 µM (inactive). For the same compound, the GI50 [63] was 2.21 µM (inactive), the GI50 [31] was 2.32 µM (inactive) and the GI50 [64] was 2.74 µM (inactive). The GI50 [32] was 5.13 µM (inactive), the GI50 [33] was 1.75 µM (inactive) and the GI50 [65] was 2.33 µM (inactive). For the same compound, the GI50 [34] was 1.64 µM (inactive), the GI50 [35] was 2.14 µM (inactive) and the GI50 [36] was 2.25 µM (inactive). The GI50 [37] was > 10 µM (inactive), the GI50 [38] was 2.07 µM (inactive) and the GI50 [39] was 2.11 µM (inactive). For the same compound, the GI50 [40] was 2.23 µM (inactive), the GI50 [41] was 1.82 µM (inactive) and the GI50 [42] was 3.36 µM (inactive). For the same compound, the GI50 [43] was 0.497 µM (active), the GI50 [44] was 6.15 µM (inactive) and the GI50 [66] was 2.74 µM (inactive). For the same compound, the GI50 [45] was 0.331 µM (active), the GI50 [46] was 2.64 µM (inactive) and the GI50 [67] was 2.32 µM (inactive). For the same compound, the GI50 [47] was 4.18 µM (inactive), the GI50 [48] was 1.73 µM (inactive) and the GI50 [49] was 2.13 µM (inactive). The GI50 [50] was 1.5 µM (inactive) and the GI50 [55] was 1.95 µM (inactive).

— ChEMBL document CHEMBL1201862, “PubChem BioAssay data set” (2004)
